The source made the active and inactive calls. No cut-off for these calls is given here.
What was measured:
[1] = tested on: P-gp; experiment: Therapeutic index, ratio of IC50 for HEK293 cells to EC50 for inhibition of P-gp in human MCF7/ADR cells assessed as potentiation of doxorubicin-induced cytotoxicity; format: toxicity, cell-based; details: HEK293 cells (IC50) and MCF7/ADR cells (EC50)
[2] = tested on: NCI/ADR-RES; experiment: Cytotoxicity against human MCF7/ADR cells after 48 hrs by MTT assay; format: cell-based
[3] = tested on: MCF7; experiment: Cytotoxicity against human MCF7 cells after 48 hrs by MTT assay; format: cell-based; details: MCF7, 48 h
[4] = tested on: HEK293; experiment: Cytotoxicity against HEK293 cells after 48 hrs by MTT assay; format: cell-based; details: Homo sapiens, HEK293, 48 h
[5] = Cytotoxicity against human MCF7/ADR cells assessed as cell survival at 10 uM after 48 hrs by MTT assay relative to control; format: cell-based; details: MCF7/ADR cells (NCI/ADR-RES), read-out: Survival
[6] = organism: Homo sapiens; experiment: Inhibition of P-gp in human MCF7/ADR cells assessed as potentiation of doxorubicin-induced cytotoxicity at 10 uM after 48 hrs by MTT assay relative to control; format: cell-based
[7] = Inhibition of P-gp in human MCF7/ADR cells assessed as potentiation of doxorubicin-induced cytotoxicity after 48 hrs by MTT assay; format: cell-based; details: NCI/ADR-RES
[8] = Cytotoxicity against human MCF7 cells assessed as cell survival at 10 uM after 48 hrs by MTT assay relative to control; format: cell-based; details: read-out: Survival
[9] = Competitive inhibition of P-gp in human MCF7/ADR cells after 150 mins in presence of doxorubicin by Dixon plot analysis; format: cell-based
[10] = Competitive inhibition of P-gp in human MCF7/ADR cells after 150 mins in presence of doxorubicin by Lineweaver-Burk plot analysis; format: cell-based
[11] = organism: Homo sapiens; experiment: Inhibition of P-gp in human MCF7/ADR cells assessed as concentration required to restore doxorubicin accumulation in cells after 150 mins by fluorescence assay relative to MCF7 cells; format: cell-based
[12] = organism: Homo sapiens; experiment: Inhibition of P-gp in human MCF7/ADR cells assessed as increase in doxorubicin accumulation in cells after 150 mins by fluorescence assay; format: cell-based
[13] = organism: Homo sapiens; experiment: Inhibition of P-gp in human MCF7/ADR cells assessed as potentiation of doxorubicin-induced cytotoxicity at 1 uM preincubated with cells followed by compound washout and subsequent incubation for 6 hrs prior to addition of doxorubicin and measured after 48 hrs by MTT assay relative to control; format: cell-based
[14] = organism: Homo sapiens; experiment: Inhibition of P-gp mediated efflux in human MCF7/ADR cells after 4 hrs by Rh123 dye-based flow cytometric method; format: cell-based
[15] = organism: Homo sapiens; experiment: Inhibition of P-gp in human MCF7/ADR cells assessed as potentiation of docetaxel-induced cytotoxicity at 10 uM after 48 hrs by MTT assay relative to control; format: cell-based
[16] = organism: Homo sapiens; experiment: Inhibition of P-gp in human MCF7/ADR cells assessed as potentiation of vincristine-induced cytotoxicity at 10 uM after 48 hrs by MTT assay relative to control; format: cell-based
[17] = tested on: NCI/ADR-RES; experiment: Inhibition of P-gp expression in human MCF7/ADR cells at 5 to 10 uM after 48 hrs by Western blot analysis; format: functional, cell-based
[18] = organism: Homo sapiens; experiment: Stimulation of human Pgp ATPase activity expressed in cell membranes at 50 uM after 1 hr by P-gp Glo assay relative to control
[19] = organism: Homo sapiens; experiment: Inhibition of P-gp in human MCF7/ADR cells assessed as increase in doxorubicin accumulation in cells up to 20 uM after 150 mins by fluorescence assay relative to control; format: cell-based
[20] = organism: Homo sapiens; experiment: Stimulation of human Pgp ATPase activity expressed in cell membranes at 2.5 uM after 1 hr by P-gp Glo assay relative to control

## C=C1[C@H](OC(=O)C(C)C)[C@@H](OC(C)=O)[C@@H](OC(C)=O)C(C)(C)/C=C/[C@H](C)[C@H](OC(=O)c2ccccc2)[C@@]2(O)C[C@@](C)(OC(C)=O)[C@H](OC(C)=O)[C@@H]2[C@H]1OC(=O)c1ccccc1
[1]
  selectivity ratio: 661
[2]
  IC50: > 100 µM
[3]
  IC50: 53.9 µM
[4]
  IC50: 61.4 µM
[5]
  viability at 48 h, 10 µM: 97.7%
[6]
  fold change (FC): 20.9
[7]
  EC50: 0.0929 µM
[8]
  viability at 48 h, 10 µM: 93.2%

## C=C1[C@H](OC(=O)C(C)C)[C@@H](OC(C)=O)[C@@H](OC(C)=O)C(C)(C)/C=C/[C@H](C)[C@H](O)[C@@]2(O)C[C@@](C)(OC(=O)C(C)C)[C@H](OC(C)=O)[C@@H]2[C@H]1OC(=O)c1ccccc1
[1]
  selectivity ratio: 512
[2]
  IC50: > 100 µM
[3]
  IC50: > 100 µM
[4]
  IC50: 63.8 µM
[5]
  viability at 48 h, 10 µM: 91.1%
[6]
  fold change (FC): 20.6
[7]
  EC50: 0.124 µM
[8]
  viability at 48 h, 10 µM: 88%

## CC(=O)O[C@H]1[C@@H](OC(C)=O)C(C)(C)[C@@H]2O[C@H]2[C@H](C)[C@H](OC(C)=O)[C@]2(O)[C@H]3[C@@H](OC(=O)c4ccccc4)[C@@](O)(CCC(=O)O[C@H]3[C@](C)(OC(C)=O)[C@H]2OC(C)=O)[C@@H]1OC(C)=O
[2]
  IC50: > 100 µM
[3]
  IC50: > 100 µM
[5]
  viability at 48 h, 10 µM: 93%
[6]
  fold change (FC): 0.69
[8]
  viability at 48 h, 10 µM: 94.9%

## CC(=O)O[C@H]1[C@@H](OC(C)=O)C(C)(C)/C=C/[C@H](C)[C@@H](OC(C)=O)[C@@]2(O)C[C@@](C)(OC(C)=O)[C@@H]3OC(=O)CC[C@@](O)([C@@H]1OC(=O)C(C)C)[C@H](OC(=O)c1ccccc1)[C@@H]32
[1]
  selectivity ratio: 368
[2]
  IC50: 93 µM
[3]
  IC50: 83.2 µM
[4]
  IC50: 53.4 µM
[5]
  viability at 48 h, 10 µM: > 100%
[6]
  fold change (FC): 17.1
[7]
  EC50: 0.145 µM
[8]
  viability at 48 h, 10 µM: 93.2%

## C=C1[C@H](OC(C)=O)[C@H]2[C@@H](OC(C)=O)[C@@H](C)C[C@]2(OC(C)=O)C(=O)[C@@H](C)/C=C/C(C)(C)C(=O)[C@H](OC(C)=O)[C@H]1OC(=O)C(C)C
[2]
  IC50: > 100 µM
[3]
  IC50: > 100 µM
[5]
  viability at 48 h, 10 µM: 96.2%
[6]
  fold change (FC): 9.99
[8]
  viability at 48 h, 10 µM: 91.9%

## COc1ccc(CCN(C)CCCC(C#N)(c2ccc(OC)c(OC)c2)C(C)C)cc1OC (stereo not drawn)
[9]
  Ki: 2.92 µM
[10]
  Ki: 2.88 µM
[11]
  Activity: 40 µM
[3]
  IC50: 48.9 µM
[5]
  viability at 48 h, 10 µM: 90.2%
[8]
  viability at 48 h, 10 µM: 83.4%
[12]
  inhibition: Dose-dependent effect

## C=C1[C@H](OC(=O)C(C)C)[C@@H](OC(C)=O)[C@@H](OC(C)=O)C(C)(C)/C=C/[C@H](C)C(=O)[C@@]2(O)C[C@@](C)(OC(C)=O)[C@H](OC(C)=O)[C@@H]2[C@H]1OC(=O)c1ccccc1
[2]
  IC50: > 100 µM
[3]
  IC50: > 100 µM
[5]
  viability at 48 h, 10 µM: 90.3%
[6]
  fold change (FC): 9.29
[8]
  viability at 48 h, 10 µM: 92.4%

## C=C1[C@@H](OC(C)=O)[C@@H]2[C@H](OC(=O)c3ccccc3)[C@](C)(OC(=O)C(C)C)C[C@]2(OC(C)=O)C(=O)[C@H](C)/C=C/C(C)(C)[C@H](OC(C)=O)[C@H](OC(C)=O)[C@H]1OC(=O)C(C)C
[1]
  selectivity ratio: 196
[2]
  IC50: > 100 µM
[3]
  IC50: > 100 µM
[4]
  IC50: 38.5 µM
[5]
  viability at 48 h, 10 µM: 91.2%
[6]
  fold change (FC): 11.2
[7]
  EC50: 0.196 µM
[8]
  viability at 48 h, 10 µM: 92.3%

## CC(=O)O[C@H]1[C@@H](OC(C)=O)C(C)(C)/C=C/[C@H](C)[C@H](OC(C)=O)[C@@]2(O)C[C@@](C)(OC(C)=O)[C@H](O)[C@@H]2[C@H]2OC(=O)CC[C@@]2(OC(=O)c2ccccc2)[C@@H]1OC(=O)C(C)C
[1]
  selectivity ratio: 346
[2]
  IC50: > 100 µM
[3]
  IC50: 64.8 µM
[4]
  IC50: 43.1 µM
[5]
  viability at 48 h, 10 µM: > 100%
[6]
  fold change (FC): 13
[7]
  EC50: 0.125 µM
[8]
  viability at 48 h, 10 µM: 98.5%

## C=C1[C@H](OC(=O)C(C)C)[C@@H](OC(C)=O)[C@@H](OC(C)=O)C(C)(C)/C=C/[C@H](C)[C@H](OC(=O)c2ccccc2)[C@@]2(O)C[C@@](C)(OC(C)=O)[C@H](OC(C)=O)[C@@H]2[C@H]1OC(=O)C(C)C
[2]
  IC50: > 100 µM
[3]
  IC50: > 100 µM
[5]
  viability at 48 h, 10 µM: 94.5%
[6]
  fold change (FC): 10
[8]
  viability at 48 h, 10 µM: 94.3%

## C=C1[C@H](OC(=O)C(C)C)[C@@H](OC(C)=O)[C@@H](OC(C)=O)C(C)(C)/C=C/[C@H](C)[C@H](OC(C)=O)[C@@]2(O)C[C@@](C)(OC(C)=O)[C@H](OC(C)=O)[C@@H]2[C@H]1OC(=O)c1ccccc1
[2]
  IC50: > 100 µM
[3]
  IC50: > 100 µM
[5]
  viability at 48 h, 10 µM: > 100%
[6]
  fold change (FC): 10.2
[8]
  viability at 48 h, 10 µM: 94.6%

## C=C1[C@H](OC(=O)CC)[C@@H](OC(C)=O)[C@@H](OC(C)=O)C(C)(C)/C=C/[C@H](C)[C@H](OC(=O)c2ccccc2)[C@@]2(O)C[C@@](C)(OC(C)=O)[C@H](OC(C)=O)[C@@H]2[C@H]1OC(=O)C(C)C
[1]
  selectivity ratio: 438
[2]
  IC50: > 100 µM
[3]
  IC50: > 100 µM
[4]
  IC50: 59.4 µM
[5]
  viability at 48 h, 10 µM: 92.5%
[6]
  fold change (FC): 13.5
[7]
  EC50: 0.136 µM
[8]
  viability at 48 h, 10 µM: 83.3%

## C=C1[C@H](OC(=O)C(C)C)[C@@H](OC(C)=O)[C@@H](OC(C)=O)C(C)(C)/C=C/[C@H](C)[C@H](OC(=O)c2ccccc2)[C@@]2(O)C[C@@](C)(OC(C)=O)[C@H](OC(C)=O)[C@@H]2[C@H]1OC(=O)C(C)CC (stereo partly drawn)
[9]
  Ki: 0.5 µM
[1]
  selectivity ratio: 1060
[13]
  fold change (FC): 1.43
[10]
  Ki: 0.49 µM
[14]
  inhibition: Dose-dependent effect
[11]
  Activity: 10 µM
[2]
  IC50: > 100 µM
[15]
  fold change (FC): 3.42
[3]
  IC50: > 100 µM
[4]
  IC50: 98.2 µM
[16]
  fold change (FC): 2.17
[5]
  viability at 48 h, 10 µM: 91.8%
[17]
  inhibition: inactive
[18]
  fold change (FC): 2.22
[6]
  fold change (FC): 36.8
[7]
  EC50: 0.0927 µM
[8]
  viability at 48 h, 10 µM: 91.4%
[12]
  inhibition: Dose-dependent effect
[19]
  fold change (FC): 2.15
[20]
  fold change (FC): 1.34

## C=C1[C@H](OC(C)=O)[C@H]2[C@@H](OC(C)=O)[C@@H](C)C[C@]2(OC(C)=O)C(=O)[C@@H](C)/C=C/C(C)(C)C(=O)[C@H](OC(C)=O)[C@H]1OC(=O)CC
[2]
  IC50: > 100 µM
[3]
  IC50: > 100 µM
[5]
  viability at 48 h, 10 µM: 94.8%
[6]
  fold change (FC): 6.65
[8]
  viability at 48 h, 10 µM: 85.6%

## C=C1[C@H](OC(=O)C(C)C)[C@@H](OC(C)=O)[C@@H](OC(C)=O)C(C)(C)/C=C/[C@H](C)[C@H](OC(=O)c2ccccc2)[C@@]2(O)C[C@@](C)(OC(C)=O)[C@H](OC(C)=O)[C@@H]2[C@H]1OC(=O)CC
[1]
  selectivity ratio: 378
[2]
  IC50: > 100 µM
[3]
  IC50: > 100 µM
[4]
  IC50: 67.2 µM
[5]
  viability at 48 h, 10 µM: 92.8%
[6]
  fold change (FC): 12.5
[7]
  EC50: 0.178 µM
[8]
  viability at 48 h, 10 µM: 93.3%

## C=C1CCC(=O)C(C)(C)/C=C/[C@H](C)C(=O)[C@@]2(OC(C)=O)C[C@H](C)[C@H](O)[C@@H]2[C@H]1OC(=O)c1ccccc1
[2]
  IC50: 90.9 µM
[3]
  IC50: 70.9 µM
[5]
  viability at 48 h, 10 µM: 90.4%
[6]
  fold change (FC): 3.52
[8]
  viability at 48 h, 10 µM: 95.6%

Source: ChEMBL document CHEMBL4145504, “Jatrophane diterpenoids from Euphorbia sororia as potent modulators against P-glycoprotein-based multidrug resistance” (Eur J Med Chem, 2018)
